# Measured values: patent US6340705B1, “Use of α-linolenic acid metabolites for treatment or prevention of cancer” (Monsanto Technology, LLC, priority 1999, dated 2002)
# Marks after values point to notes of the source that are not given here.
# Key:
# [1] = system: Min/+ mouse model of intestinal cancer; assay: Intestinal polyp formation in the Min/+ mouse model of intestinal cancer; type: in vivo; set-up: Avg. large intestine tumor size: unit not given here; details: Min/+ mice
# Experimental: The efficacy of select n-3 and n-6 polyunsaturated fatty acids was evaluated in the Min/+ mouse model of intestinal cancer. The following fatty acid ethyl esters were tested for their effect on intestinal polyp formation: 1) ALA-EE; 2) SDA-EE; 2) EPA-EE; 4) DHA-EE; 5) GLA-EE ([…], 18:3 n-6); and 6) CLA-EE (conjugated linoleic acid; c9t11-18:2 (77%)+c9c11-18:2 (18%)+other isomers (5%)).
# These fatty acid ethyl esters were added to the US17 diet to provide 10 g/day human equivalent dose (3% wt.). The NSAID, sulindac (320 ppm), served as the positive control. In order to maintain a 17% fat (37 en%) content in the US17 diet, oleic acid (18:1 n-9) was removed from the US17 diet in an amount equal to the amount of the fatty acid ethyl ester that was added. Mice were received at approximately five weeks of age and were fed the test diets upon receipt. After seven weeks on the respective test diet, the mice were sacrificed and the intestinal polyps were counted and measured.
# [2] = Arachidonic acid level in phospholipid fraction of small intestine, Min/+ mouse; type: in vivo; details: Min/+ mice, fed as ethyl esters, 10 g/day human equivalent dose in US17 diet
# Experimental: Fatty acid composition was determined in the small intestine because that is where the vast majority of polyps form. These fatty acid esters were added to the US17 diet as discussed in Example 8. The arachidonic acid level in the phospholipid fraction of the small intestines of the mice was determined by gas chromatography. In FIG. 11, bars labeled with the same letter (e.g., control and CLA, both labeled with a “b”) have values which, statistically, are not different.
# [3] = type: in vivo, rats; details: rats, US17 diet with 1, 3 or 10 g/day human equivalent dose, one month
# Text: Mice were fed a US17 diet containing α-linolenic acid ethyl ester (ALA-EE), stearidonic acid ethyl ester (SDA-EE), eicosapentaenoic acid ethyl ester (EPA-EE), or docosahexaenoic acid ethyl ester (DHA-EE) in an amount equivalent to a human western diet containing 1, 3 or 10 g/day of the fatty acid (g/day human equivalent dose). In order to maintain a 17% fat (37 en %) content in the US17 diet, oleic acid (18:1 n-9), as an oleic acid cassette, was removed from the US17 diet in an amount equal to the amount of fatty acid ester that was added. Oleic acid was selected as the replacement fatty acid because literature reports indicate that oleic acid is neutral with respect to inflammation and cancer.
# After one month on the respective US17-based diets, the mice were sacrificed and the fatty acid composition of each of their livers was analyzed by gas chromatography. The results of these analyses are pressured in FIG. 8.
# The method used was as described in Example 6 except that rats were used in place of mice.
# [4] = system: HT-29 cells; assay: Primary tumor growth in the nude mouse/HT-29 cancer model; type: in vivo; details: nude mice, HT-29 cells in footpad, US17 diet containing stearidonic acid 3% (10 g/day human equivalent dose), after 35 days
# Experimental: The efficacy of stearidonic acid (18:4n-3) in inhibiting primary tumor growth was evaluated using the nude mouse/HT-29 model. The nude mouse/HT-29 model has been described previously. Hernandez-Alcoceloa R., Fernandez, F., Lacal, J C, Cancer Res., 59(13), 312-18 (1999); Fantini, J., Cancer J., 5(2) (1992).
# Nude (i.e., immunodeficient) mice were fed the US17 diet for three weeks. HT-29 cells were cultured in RPMI-1640 medium supplemented with fetal bovine serum, penicillin, and streptomycin (Gibco, Grand Island, N.Y.) and maintained in a CO2 atmosphere at 37° C. After achieving the optimal cell density, the HT-29 cells were rinsed and then suspended in phosphate buffered saline (PBS). A cell suspension was made in MATRIGEL (Becton Dickinson Labware, Bedford, Mass.). The suspension was ⅔ by volume cells in PBS and ⅓ by volume MATRIGEL. MATRIGEL provides an extracellular matrix secreted by […]. The matrix contains angiogenic and cell proliferation growth factors that aid in HT-29 cell attachment and proliferation as a primary tumor.
# One million cells were injected in a 30 μl volume into the subplanter area of the righthind footpad of the nude mice. […] The amount of primary tumor growth was measured by measuring the change in mouse footpad volume over time. Footpad volume was measured with a plethysmometer (Ugo Basile, Camerio-Varese, Italy).
# [5] = system: HepG2 cells; assay: Uptake of 14C-ALA, 14C-SDA and 14C-EPA by HepG2 cells; type: in vitro ADME
# Experimental: To a culture medium containing HepG2 cells was added 20 μM ^14C-ALA, ^14C-SDA or ^14C-EPA complexed to fatty acid free BSA. The amount of ^14C-ALA, ^14C-SDA or ^14-EPA EPA Taken up by the HepG2 cells was measured 6 hours, 24 hours and 48 hours after addition of the fatty acid. A scintillation counter was used to measure the total amount of radioactivity in the HepG2 cells and the amount remaining in the medium.
# [6] = system: HepG2 cells; assay: Metabolism of radiolabeled fatty acids to long chain n-3 PUFAs (EPA, DHA) in HepG2 cells; type: in vitro ADME
# Experimental: HepG2 cells were allowed to take up ^14C-ALA or ^14C-SDA as described in Example 2. The total amount of ^14C-EPA, ^14C-DPA and ^14C-DHA present in the HepG2 cells was measured 6 hours, 24 hours and 48 hours after addition of the fatty acid by argentation thin layer chromatography (TLC). The amount of each fatty acid present as a band on the TLC plate was quantified by electronic autoradiography using an Instant Imager supplied by Packard (Meriden, Conn.).
# HepG2 cells were allowed to take up ^14C-ALA, ^14C-SDA or ^14C-EPA as described in Example 2. The amount of ^14C-EPA and ^14C-DHA present in the HepG2 cells was measured 6 hours, 24 hours and 48 hours after addition of the fatty acids by argentation thin layer chromatography (TLC) as described in Example 3. The amount of ^14C-EPA and ^14C-DHA present as bands on the TLC plate were quantified by electronic autoradiography using an Instant Imager as described in Example 3.
# [7] = large intestine and small intestine, versus US17 diet, 10 g/day human equivalent dose
# [8] = 10 g/day human equivalent dose (3% wt.) or sulindac 320 ppm, seven weeks, mean ± SEM
# [9] = 10 g/day human equivalent dose (3% wt.) or sulindac 320 ppm, seven weeks, mean ± SEM, tumor number × tumor size
# [10] = fatty acid ethyl ester 10 g/day human equivalent dose (3% wt.) in US17 diet or sulindac 320 ppm, seven weeks
# [11] = large and small intestine, 10 g/day human equivalent dose (3% wt.) or sulindac 320 ppm, seven weeks, mean ± SEM
compound,measurement,setting,value
"CC/C=C\C/C=C\C/C=C\C/C=C\CCCCC(=O)O [SDA, stearidonic acid]",effectiveness in inhibiting polyp formation and development in the large intestine,[1]; 10 g/day human equivalent dose,comparable to that of sulindac
same,effectiveness in inhibiting polyp formation and development in the small intestine,[1]; 10 g/day human equivalent dose,comparable to that of EPA
same,decrease in polyp load (number×size),[1]; [7],56%
same,decrease in polyp number,[1]; [7],47%
same,decrease in polyp size,[1]; [7],18%
same,Total small intestine tumors/group,"[1]; 10 g/day human equivalent dose (3% wt.) or sulindac 320 ppm, seven weeks",185
same,Avg. large intestine tumors/mouse,[1]; [8],0.2 ± 0.1^d
same,Avg. small intestine tumor size,[1]; [8],1.07 ± 0.02^ab mm
same,Avg. small intestine tumors/mouse,[1]; [8],18.5 ± 1.9^c
same,Avg. large intestine tumor size,"[1]; 10 g/day human equivalent dose (3% wt.) or sulindac 320 ppm, seven weeks, mean ± SEM, only animals bearing colonic tumors",1.50 ± 0.00^b
same,Avg. large intestine tumor load,[1]; [9],0.30 ± 0.20^d mm
same,Avg. small intestine tumor load,[1]; [9],19.90 ± 2.11^cd mm
same,Total large intestine tumors/group,[1]; [10],2
same,"Total large intestine tumors/group, figure in brackets (animals bearing tumors/animals in group)",[1]; [10],2/10
same,Total Avg. overall tumor load,[1]; [11],20.19 ± 2.24^cd mm
same,Total Avg. overall tumor size,[1]; [11],1.08 ± 0.02^d mm
same,Total Avg. tumors/mouse,[1]; [11],18.7 ± 1.9^a
same,"decreasing the level of arachidonic acid in the small intestine (phospholipid fraction, FIG. 11)",[2],"more effective than ALA, EPA and DHA"
same,level of arachidonic acid in liver tissue (FIG. 9),[3],greater decrease in the level of arachidonic acid than did either ALA or EPA
same,less primary tumor growth (footpad volume) than US17 diet,[4],33%
same,radiolabeled fatty acid taken up by the cells,"[5]; 20 μM complexed to fatty acid free BSA, within the first six hours of incubation",Approximately 95%
same,"uptake by HepG2 cells, comparison (FIG. 1)","[5]; 20 μM, 6, 24 and 48 hours",taken up equally
same,"metabolism to long chain n-3 PUFAs, comparison (FIG. 2 to FIG. 3)",[6],faster than that of ALA
same,rate of metabolism to EPA and further to DHA relative to ALA,[6],approximately twice that of ALA
same,"metabolized to 14C-fatty acid end products (EPA or DHA) or intermediates (20:4 n-3, 22:5 n-3, 24:5 n-3)",[6]; 20 μM,~95%
